Experimental data reported in US9980943B2, “Methods of treating muscular dystrophy” (BOARD OF REGENTS OF THE NEVADA SYSTEM OF HIGHER EDUCATION, …, priority 2013, dated 2018).

What was measured:
Format in all cases: cell-based, mouse
[1] = tested on: α7 integrin (LacZ reporter in α7βgal+/− myoblasts); assay: Myoblast α7+/LacZ integrin FDG assay (Burkin assay in myoblasts, 96-well); conditions: α7+/LacZ myoblasts, 96-well
[2] = tested on: α7 integrin (LacZ reporter in α7+/LacZ myotubes); assay: Myotube α7 integrin FDG assay (Burkin assay in myotubes, 96-well); conditions: myotubes
[3] = tested on: β-galactosidase in CMV-LacZ C2C12 myotubes; assay: CMV-LacZ secondary screen in C2C12 myotubes (β-Gal stabilizing assay); conditions: for CMV-LACZ in Myotubes, signal relative to DMSO: C2C12 CMV-LacZ myotubes, fold relative to DMSO; for CMV-LACZ in Myotubes (β-galactosidase activity relative to DMSO): CMV-LacZ C2C12 myotubes, 96-well format
Summary of the method: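 β-Gal level was the read-out, measured in a clonal C2C12 line expressing LacZ from a CMV promoter. Dose-response curves used six concentrations, 0.5 μM up to 40 μM, with duplicate points.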

SMILES | CMV-LACZ in Myotubes, signal relative to DMSO ([3]; 5 uM) | CMV-LACZ in Myotubes, signal relative to DMSO ([3]; 10 uM) | CMV-LACZ in Myotubes, signal relative to DMSO ([3]; 20 uM) | CMV-LACZ in Myotubes, signal relative to DMSO ([3]; 40 uM) | Burkin Assay in Myoblasts, value relative to DMSO ([1]; 0.5 uM) | Burkin Assay in Myoblasts, value relative to DMSO ([1]; 1 uM) | Burkin Assay in Myoblasts, value relative to DMSO ([1]; 5 uM) | Burkin Assay in Myoblasts, value relative to DMSO ([1]; 10 uM) | Burkin Assay in Myoblasts, value relative to DMSO ([1]; 20 uM) | Burkin Assay in Myoblasts, value relative to DMSO ([1]; 40 uM) | Burkin Assay in Myotubes (signal relative to DMSO) ([2]; 0.5 uM) | Burkin Assay in Myotubes (signal relative to DMSO) ([2]; 1 uM) | Burkin Assay in Myotubes (signal relative to DMSO) ([2]; 5 uM) | Burkin Assay in Myotubes (signal relative to DMSO) ([2]; 10 uM) | Burkin Assay in Myotubes (signal relative to DMSO) ([2]; 20 uM) | Burkin Assay in Myotubes (signal relative to DMSO) ([2]; 40 uM) | CMV-LACZ in Myotubes (β-galactosidase activity relative to DMSO) ([3]; 5 uM) | CMV-LACZ in Myotubes (β-galactosidase activity relative to DMSO) ([3]; 10 uM) | CMV-LACZ in Myotubes (β-galactosidase activity relative to DMSO) ([3]; 20 uM) | CMV-LACZ in Myotubes (β-galactosidase activity relative to DMSO) ([3]; 40 uM) | other results
CC1CCCCC12NC(=O)N(CC(=O)OCc1cccc(F)c1)C2=O (centres unmarked) [MLS002161350-01] | 0.906 | 0.9679 | 0.8847 | 1.046 | – | – | – | – | – | – | – | – | – | – | – | – | – | – | – | – | Burkin Assay in Myoblasts, signal relative to DMSO ([1]; 0.5 uM): 0.9404; Burkin Assay in Myoblasts, signal relative to DMSO ([1]; 1 uM): 0.9236; Burkin Assay in Myoblasts, signal relative to DMSO ([1]; 5 uM): 0.9531; Burkin Assay in Myoblasts, signal relative to DMSO ([1]; 10 uM): 0.9514; Burkin Assay in Myoblasts, signal relative to DMSO ([1]; 20 uM): 0.822; Burkin Assay in Myoblasts, signal relative to DMSO ([1]; 40 uM): 0.8262; Burkin Assay in Myotubes, α7 integrin LacZ reporter signal relative to DMSO ([2]; 0.5 uM): 0.9844; Burkin Assay in Myotubes, α7 integrin LacZ reporter signal relative to DMSO ([2]; 1 uM): 1.177; Burkin Assay in Myotubes, α7 integrin LacZ reporter signal relative to DMSO ([2]; 5 uM): 0.7783; Burkin Assay in Myotubes, α7 integrin LacZ reporter signal relative to DMSO ([2]; 10 uM): 0.987; Burkin Assay in Myotubes, α7 integrin LacZ reporter signal relative to DMSO ([2]; 20 uM): 1.049; Burkin Assay in Myotubes, α7 integrin LacZ reporter signal relative to DMSO ([2]; 40 uM): 1.116
O=C(CSc1nnc(C2CC2)n1C1CC1)c1cccs1 [MLS002161757-01] | – | – | – | – | 0.9614 | 0.892 | 0.9113 | 0.9135 | 1.009 | 1.151 | 0.8459 | 1.07 | 1.092 | 1.06 | 0.9795 | 1.146 | 0.919 | 1.102 | 1.153 | 1.256 | –
COCc1c(C(=O)OCc2nc3ccsc3c(=O)[nH]2)oc2ccccc12 [MLS002163386-01] | – | – | – | – | 1.0508 | 0.9023 | 1.034 | 0.888 | 1.014 | 0.9388 | 1.104 | 1.048 | 1.112 | 1.064 | 1.064 | 1.02 | 0.9749 | 1.196 | 0.9465 | 1.066 | –
O=C(Nc1ccc(S(=O)(=O)Nc2nccs2)cc1)c1ccccc1OC(F)F [MLS002164687-01] | – | – | – | – | – | – | – | – | – | – | – | – | – | – | – | – | 0.7625 | 0.922 | 0.968 | 1.113 | fold induction at 0.5 µM ([1]; Mus musculus, Myoblast, 48 h, 0.5 uM, read-out: Burkin Assay in Myoblasts, value relative to DMSO): 0.775; fold induction at 1 µM ([1]; Mus musculus, Myoblast, 48 h, 1 uM, read-out: Burkin Assay in Myoblasts, value relative to DMSO): 0.819; fold induction at 5 µM ([1]; Mus musculus, Myoblast, 48 h, 5 uM, read-out: Burkin Assay in Myoblasts, value relative to DMSO): 0.695; fold induction at 10 µM ([1]; Mus musculus, Myoblast, 48 h, 10 uM, read-out: Burkin Assay in Myoblasts, value relative to DMSO): 0.849; fold induction at 20 µM ([1]; Mus musculus, Myoblast, 48 h, 20 uM, read-out: Burkin Assay in Myoblasts, value relative to DMSO): 0.838; fold induction at 40 µM ([1]; Mus musculus, Myoblast, 48 h, 40 uM, read-out: Burkin Assay in Myoblasts, value relative to DMSO): 0.819; fold induction at 0.5 µM ([2]; Mus musculus, Myotube, 0.5 uM, read-out: Burkin Assay in Myotubes (signal relative to DMSO)): 0.853; fold induction at 1 µM ([2]; Mus musculus, Myotube, 1 uM, read-out: Burkin Assay in Myotubes (signal relative to DMSO)): 1; fold induction at 5 µM ([2]; Mus musculus, Myotube, 5 uM, read-out: Burkin Assay in Myotubes (signal relative to DMSO)): 1.23; fold induction at 10 µM ([2]; Mus musculus, Myotube, 10 uM, read-out: Burkin Assay in Myotubes (signal relative to DMSO)): 1.37; fold induction at 20 µM ([2]; Mus musculus, Myotube, 20 uM, read-out: Burkin Assay in Myotubes (signal relative to DMSO)): 1.02; fold induction at 40 µM ([2]; Mus musculus, Myotube, 40 uM, read-out: Burkin Assay in Myotubes (signal relative to DMSO)): 1.06
CSc1ncccc1C(=O)OCC(=O)c1cc(C)n(C)c1C [MLS002245351-01] | – | – | – | – | 1.082 | 1.037 | 1.034 | 0.9704 | 0.9001 | 0.8657 | 1.047 | 0.9463 | 1.107 | 1.042 | 1.061 | 1.031 | 0.8306 | 1.001 | 1.009 | 0.9307 | –
N#Cc1ccccc1S(=O)(=O)N1CCN(C(=O)C2CCCCC2)CC1 [MLS002251986-01] | 0.9831 | 0.9609 | 0.8238 | 0.9776 | – | – | – | – | – | – | – | – | – | – | – | – | – | – | – | – | Burkin Assay in Myoblasts, signal relative to DMSO ([1]; 0.5 uM): 1.046; Burkin Assay in Myoblasts, signal relative to DMSO ([1]; 1 uM): 0.9231; Burkin Assay in Myoblasts, signal relative to DMSO ([1]; 5 uM): 0.9512; Burkin Assay in Myoblasts, signal relative to DMSO ([1]; 10 uM): 0.8667; Burkin Assay in Myoblasts, signal relative to DMSO ([1]; 20 uM): 0.9793; Burkin Assay in Myoblasts, signal relative to DMSO ([1]; 40 uM): 0.9184; Burkin Assay in Myotubes, α7 integrin LacZ reporter signal relative to DMSO ([2]; 0.5 uM): 1.121; Burkin Assay in Myotubes, α7 integrin LacZ reporter signal relative to DMSO ([2]; 1 uM): 0.9515; Burkin Assay in Myotubes, α7 integrin LacZ reporter signal relative to DMSO ([2]; 5 uM): 1.073; Burkin Assay in Myotubes, α7 integrin LacZ reporter signal relative to DMSO ([2]; 10 uM): 1.088; Burkin Assay in Myotubes, α7 integrin LacZ reporter signal relative to DMSO ([2]; 20 uM): 0.9882; Burkin Assay in Myotubes, α7 integrin LacZ reporter signal relative to DMSO ([2]; 40 uM): 0.9112
CCc1c(C2(O)CCCCC2)[nH]c2ncccc12 [MLS002402866-01] | 0.8739 | 0.7966 | 0.832 | 0.7307 | 1.037 | 1.1052 | 0.9113 | 0.9376 | 0.8943 | 0.7689 | 1.09 | 1.258 | 1.181 | 1 | 1.075 | 0.9237 | – | – | – | – | –
C[C@H]1CNC(=O)c2c(C(=O)Nc3ccc(CNC(=O)OC(C)(C)C)cc3)ncn21 [MLS003126425-01] | – | – | – | – | 1.146 | 1.1398 | 1.282 | 1.254 | 1.13 | 0.4401 | 1.104 | 1.203 | 1.422 | 1.6782 | 0.7372 | 0.5208 | 1.354 | 0.8902 | 0.743 | 0.7123 | –
